Results: PubChem BioAssay AID330 (DTP/NCI, 2004)
“And” between values parts separate entries of the source, which are not always exact repeats. Identical values can stand only once. Inconclusive results and toxic doses are left out.

System: P388 leukemia ip, CD2F1 mice, survival T/C
Experiment: NCI In Vivo Anticancer Drug Screen. Data for tumor model P388 Leukemia (intraperitoneal) in CD2F1 (CDF1) mice
Settings: endpoint: median survival time, higher = longer survival
Outline: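 Mice carrying the transplanted tumor received test compound or vehicle. Survival was recorded in each group, and the value is the treated-group measurement divided by that of the vehicle-treated control group.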

[1] = dose: 25.0 mg/kg/injection, schedule: Q01DX005 (ip), vehicle: Klucel (hydroxypropylcellulose) (HPC)
[2] = dose: 50.0 mg/kg/injection, schedule: Q01DX005 (ip), vehicle: Klucel (hydroxypropylcellulose) (HPC)
[3] = dose: 100.0 mg/kg/injection, schedule: Q01DX005 (ip), vehicle: Klucel (hydroxypropylcellulose) (HPC)
[4] = dose: 200.0 mg/kg/injection, schedule: Q01DX005 (ip), vehicle: Klucel (hydroxypropylcellulose) (HPC)
[5] = dose: 50.0 mg/kg/injection, schedule: Q01DX009 (ip), vehicle: Klucel (hydroxypropylcellulose) (HPC)
[6] = dose: 200.0 mg/kg/injection, schedule: Q01DX009 (ip), vehicle: Klucel (hydroxypropylcellulose) (HPC)
[7] = dose: 120.0 mg/kg/injection, schedule: Q01DX005 (ip), vehicle: saline with Tween-80
[8] = dose: 240.0 mg/kg/injection, schedule: Q01DX005 (ip), vehicle: saline with Tween-80
[9] = dose: 50.0 mg/kg/injection, schedule: Q01DX005 (ip), vehicle: saline
[10] = dose: 100.0 mg/kg/injection, schedule: Q01DX005 (ip), vehicle: saline
[11] = dose: 200.0 mg/kg/injection, schedule: Q01DX005 (ip), vehicle: saline
[12] = dose: 25.0 mg/kg/injection, schedule: Q01DX009 (ip), vehicle: saline with Tween-80
[13] = dose: 50.0 mg/kg/injection, schedule: Q01DX009 (ip), vehicle: saline with Tween-80

Q: What does the source list for `C=C1CC[N+]2(CCCC)CCCC12` (configuration not stated)?
A: T/C (dose: 7.5 mg/kg/injection, schedule: Q01DX005 (ip), vehicle: saline): 104 % of control; T/C (dose: 15.0 mg/kg/injection, schedule: Q01DX005 (ip), vehicle: saline): 98 % of control; T/C (dose: 30.0 mg/kg/injection, schedule: Q01DX005 (ip), vehicle: saline): 100 % of control

Q: For `CCCCNC(=O)C(C)OC(=O)C(CC)CCCC` (configuration not stated), which T/C [1] is on record?
A: 105 % of control

Q: What about the T/C [2] of the same molecule?
A: 100 % of control

Q: What about the T/C [3] of the same molecule?
A: 102 % of control

Q: And the T/C [4]?
A: 105 % of control

Q: `O=[N+]([O-])c1ccccc1N=NNc1ccccc1` was tested. Which T/C [5] did it give?
A: 95 % of control

Q: What about the T/C (dose: 100.0 mg/kg/injection, schedule: Q01DX009 (ip), vehicle: Klucel (hydroxypropylcellulose) (HPC)) of the same molecule?
A: 91 % of control

Q: And the T/C [6]?
A: 104 % of control

Q: For `O=C1CC(C2CCCCC2)C(=O)c2cc3cccnc3c(O)c21` (configuration not stated), which T/C (dose: 50.0 mg/kg/injection, schedule: Q01DX005 (ip), vehicle: saline with Tween-80) is on record?
A: 101 % of control

Q: What about the T/C (dose: 100.0 mg/kg/injection, schedule: Q01DX005 (ip), vehicle: saline with Tween-80) of the same molecule?
A: 99 % of control

Q: And the T/C (dose: 200.0 mg/kg/injection, schedule: Q01DX005 (ip), vehicle: saline with Tween-80)?
A: 93 % of control

Q: How did the T/C (dose: 60.0 mg/kg/injection, schedule: Q01DX005 (ip), vehicle: saline with Tween-80) turn out when `CC(C)(C)OOC(=O)Cc1ccccc1` was run?
A: 104 % of control

Q: And the T/C [7]?
A: 122 % of control

Q: And the T/C [8]?
A: 122 % of control

Q: For `COC(=O)N(C)C1=CCC(C(C)(C)C)CC1` (configuration not stated), which T/C [1] is on record?
A: 103 % of control

Q: What about the T/C [2] of the same molecule?
A: 106 % of control

Q: What about the T/C [3] of the same molecule?
A: 107 % of control

Q: And the T/C [4]?
A: 105 % of control

Q: How did the T/C [9] turn out when `NCCSCCO` was run?
A: 98 % of control

Q: And the T/C [10]?
A: 100 % of control

Q: What about the T/C [11] of the same molecule?
A: 99 % of control

Q: How did the T/C (dose: 100.0 mg/kg/injection, schedule: Q01DX001 (ip), vehicle: saline with Tween-80) turn out when `CC(/C=N/Nc1ccccc1)=N\N=c1/scc(-c2ccc(Br)cc2)n1-c1ccc(C)cc1` was run?
A: 88 % of control

Q: What about the T/C (dose: 400.0 mg/kg/injection, schedule: Q01DX001 (ip), vehicle: saline with Tween-80) of the same molecule?
A: 86 % of control

Q: What does the source list for `O=C1C=CC(=O)[C@H]2CC=C3OC4OC5(CCCCC5)OC4[C@H]3[C@@H]12` (some centres not stated)?
A: T/C [7]: 94 % of control; T/C [8]: 97 % of control

Q: Which results are given for `Nc1cc2[nH]ccc2c(=O)[nH]1`?
A: T/C [9]: 108 % of control; T/C [10]: 113 % of control; T/C [11]: 114 % of control

Q: `CCCCc1n(O)c(-c2ccccc2)c(C)[n+]1[O-]` was tested. Which T/C (dose: 12.5 mg/kg/injection, schedule: Q01DX009 (ip), vehicle: saline with Tween-80) did it give?
A: 100 % of control

Q: And the T/C [12]?
A: 92 % of control

Q: What about the T/C [13] of the same molecule?
A: 88 % of control and 91 % of control

Q: Which T/C (dose: 6.25 mg/kg/injection, schedule: Q01DX009 (ip), vehicle: Klucel (hydroxypropylcellulose) (HPC)) does the source give for `CCOC(=O)N/N=C/c1ccc(N(C)CCC#N)cc1` here?
A: 90 % of control

Q: What about the T/C (dose: 12.5 mg/kg/injection, schedule: Q01DX009 (ip), vehicle: Klucel (hydroxypropylcellulose) (HPC)) of the same molecule?
A: 100 % of control

Q: What about the T/C (dose: 25.0 mg/kg/injection, schedule: Q01DX009 (ip), vehicle: Klucel (hydroxypropylcellulose) (HPC)) of the same molecule?
A: 97 % of control

Q: What about the T/C [5] of the same molecule?
A: 88 % of control and 89 % of control

Q: What about the T/C [6] of the same molecule?
A: 90 % of control

Q: How did the T/C (dose: 50.0 mg/kg/injection, schedule: Q01DX005 (ip), vehicle: suspension in saline) turn out when `N=C(N)SCCC(=O)NCNC(=O)CCSC(=N)N` was run?
A: 98 % of control

Q: What about the T/C (dose: 100.0 mg/kg/injection, schedule: Q01DX005 (ip), vehicle: suspension in saline) of the same molecule?
A: 99 % of control

Q: What does the source list for `[Cl][Ru][Cl].[NH-]CC[NH-].[NH-]CC[NH-]`?
A: T/C (dose: 12.5 mg/kg/injection, schedule: Q04DX003 (ip), vehicle: water): 111 % of control and 123 % of control and 124 % of control; T/C (dose: 25.0 mg/kg/injection, schedule: Q04DX003 (ip), vehicle: water): 107 % of control; T/C (dose: 50.0 mg/kg/injection, schedule: Q04DX003 (ip), vehicle: water): 155 % of control

Q: Which results are given for `CCOC(=O)Cn1c(=S)sc2ccccc21`?
A: T/C [12]: 91 % of control; T/C [13]: 89 % of control; T/C (dose: 100.0 mg/kg/injection, schedule: Q01DX009 (ip), vehicle: saline with Tween-80): 99 % of control; T/C (dose: 200.0 mg/kg/injection, schedule: Q01DX009 (ip), vehicle: saline with Tween-80): 91 % of control
